Source: US5936065A, “CS-1 peptidomimetics, compositions and methods of using the same” (Cytel Corporation, priority 1995, dated 1999)
Square brackets hold non-standard residues; d marks the D form. Peptide text beside a SMILES is read from it. * marks the point of attachment. PhAc = O=C(Cc1ccccc1)*

Columns and labels:
[1] = target: T1, VLA-4 receptor (Homo sapiens, UniProt P05556+P13612); test: In vitro binding assay: inhibition of binding of 51Cr-labeled Jurkat cells to solid phase-bound CS-1 compound (SEQ ID NO:1); format: cell-based; settings: for Relative Potency: binding inhibition potency (IC50) normalized to standard compound of SEQ ID NO:3 = 1, multiple assays averaged, about one-tenth or less assigned zero
T1 construct: inflammatory cells that contain the VLA-4 receptor [Jurkat cells; host or cells: Jurkat cells (human T lymphoblastic line)
Description: Binding inhibition is measured here as a concentration of compound that inhibits one-half the binding between a standard number of Jurkat cells and a standard amount of CS-1 compound bound to the surface of a microtiter plate well. Those concentrations are conveniently expressed as IC50 values, smaller numbers indicating a lower concentration required to inhibit 50 percent binding and therefore greater potency. Further specifics of this assay are provided hereinafter.
Jurkat cells (ATCC TIB 152), a human T lymphoblastic line, labeled with ^51 chromium were used to assay in vitro binding inhibition provided by various compounds discussed herein.
The plates were prepared as follows: The 25-mer CS-1 compound (SEQ ID NO:1) dissolved at 0.5-1 μg/ml in a buffer of 0.1M NaHCO3 at pH 9.5 that also contained 10 μg/ml of bovine serum albumin (BSA) or a conjugate of the CS-1 compound linked to ovalbumin (CS-1-OVA) dissolved at 1-2.5 μg/ml in the same buffer was used as the substrate. Each well of the microtiter plates was coated with 50 μl of substrate or buffer alone for controls. The wells were permitted to dry out completely and were then rinsed twice with PBS at pH 7.4. Non-specific binding sites of each well were then blocked using 200 μl per well of RPMI/1 percent BSA for two hours at room temperature.
Jurkat cells (3-5×10^6 cells) were placed into a 15 ml Falcon™ round-bottom tube with a cap. The tube was centrifuged, and the extra medium was then removed.
Two hundred microliters of a ^51 Cr labeling solution were added to the centrifuged cells and maintained in contact with the cells for 90-120 minutes in a warm room. […] Longer contact times provide a greater amount of labeling but lower cell viability.
The labeled cells are washed with (i) complete medium, (ii) 1 mM EDTA/PBS and then (iii) RPM1/1 percent BSA free of serum components. The cells are centrifuged after each washing. The cells are finally resuspended in serum-free RPMI/1 percent BSA at a concentration of 1×10^6 viable cells/ml, which provides a concentration that is diluted by one-half in the assay.
Inhibitor compounds are prepared as stock solutions at 20 mg/ml in DMSO in 1.5 ml cryogenic screwcap vials, and were stored at -70° C. Using Flow™ round-bottom or V-bottom microtiter plates, the inhibitor compounds were prepared at twice the assay concentration in RPMI/1 percent BSA at 60 μl/well.
Four initial dilutions were typically used.
The ^51 Cr-labeled cells ([…] at 60 μl/well) were then admixed with the diluted compound solutions. The admixtures were maintained at room temperature (about 22° C.) for 30 minutes.
One hundred microliters of each inhibitor compound/cell admixture were transferred to the substrate-coated wells. This was done in triplicate for each dilution. The resulting plates were incubated for 30 minutes at 37° C. and then washed gently three times with RPMI/1 percent BSA at 200 μl/well. Binding was observed microscopically, particularly after the second wash.
The bound cells were then lysed by the addition of a 0.5 percent solution of sodium dodecylsulfate in water at 100 μl/well. The resulting solutions were then processed for counting and calculation of IC50 values following usual procedures.
The data of Table 1 are normalized to the binding of SEQ ID NO:3. […] Multiple assays for the same compound were averaged.

[2] = system: SJL/J mice; test: Experimental autoimmune encephalomyelitis in mice; format: in vivo; settings: 1 mg/mouse intraperitoneally at days 8 and 9; FIG. 6
Description: EAE was induced in female SJL/J mice (8 to 14 weeks old) by immunization on day zero with 50 μg of a compound corresponding to positions 139-151 of PLP emulsified in a 1:1 mixture of PBS and complete Freund's adjuvant (CFA). Each mouse was injected with 0.2 ml of the adjuvant emulsion subcutaneously (s.c.) at two sites in the hind flank. All mice received 10^7 killed Bordetella pertussis units in 100 μl were injected intravenously 24 to 72 hours later.
Mice were observed daily, beginning at day 8 for clinical signs of EAE, and disease was scored on a scale of 0-5 as: 0=no disease; 1=floppy tail; 2=moderate hind limb weakness; 3=paraparesis; 4=paraplegis with moderate forelimb weakness; 5=qualdriplegis or premoribund state.
The inhibitor compound, Compound ID No. 896.52, N-phenylacetyl-Leu-Asp-Phe-D-Pro-NH2 was administered intraperitoneally at 1 mg/mouse in 0.2 ml of incomplete Freund's adjuvant at days 8 and 9. A compound having a scrambled sequence [N-phenylacetyl-Asp-Leu-Phe-D-Pro-NH2 ] was similarly administered to serve as a control.
Summed or averaged scores for clinical signs were plotted vs. time. The area under the resulting curves was calculated between day 8 and day 35 to calculate percentage inhibition of EAE by an inhibitor compound. The percent inhibition was calculated as follows:
[…]

[3] = Retention of potency in PBS containing 10 percent mouse or human serum; format: in vitro ADME; settings: PBS at 7.2-7.4 containing 10 percent mouse or human serum; 24 hours
[4] = system: BALB/c mice; test: Adoptive transfer delayed type hypersensitivity (oxazolone) in mice; format: in vivo, mouse; settings: for reduction of inflammation (swelling diameter at challenge site), initial study: 6 mg/kg/day subcutaneously by implanted pump for 24 hours, ear swelling 24 hours after challenge, FIG. 5
Description: An adoptive transfer delayed-type hypersensitivity murine model has been developed using splenic T cells primed to oxazolone. This model is described in Elices et al., Clin. Exp. Rheum., 11(Suppl. 8):577-580 (1993), whose procedures were followed here.
Thus, BALB/c mice were shaved on the belly and painted (50 μl on the belly and 5 μl on each paw) with three percent oxazolone in acetone/olive oil (4:1) at days zero and 1. At day 5, the mice were sacrificed, their spleens removed, and splenic T cells were obtained via nylon wool columns.
Normal saline or saline containing 25×10^6 /animal of the oxazolone-immune T cells were separately injected into naive mice. The mice were then challenged by painting 10 μl of 2 percent oxazolone onto one ear each. All procedures were carried out under sterile conditions and in endotoxin-free buffers.
Prior to challenge or saline injection, the mice were implanted with pumps that subcutaneously administered normal saline, normal saline containing the compound, Compound ID No. 896.52, N-phenylacetyl-Leu-Asp-Phe-D-Pro-NH2, or normal saline containing a compound with a scrambled sequence continually at 6 mg/kg/day for a 24-hour time period. The swelling diameter at the site of challenge or saline injection was measured with a microcaliper 24 hours thereafter.
An expanded study was carried out as described above except that a scrambled compound control was not used as a control for further inhibitor compounds of Table 1 with larger groups of mice. Statistical analyses were carried out versus injection of vehicle alone.

T1 sequence (P13612 34-1032): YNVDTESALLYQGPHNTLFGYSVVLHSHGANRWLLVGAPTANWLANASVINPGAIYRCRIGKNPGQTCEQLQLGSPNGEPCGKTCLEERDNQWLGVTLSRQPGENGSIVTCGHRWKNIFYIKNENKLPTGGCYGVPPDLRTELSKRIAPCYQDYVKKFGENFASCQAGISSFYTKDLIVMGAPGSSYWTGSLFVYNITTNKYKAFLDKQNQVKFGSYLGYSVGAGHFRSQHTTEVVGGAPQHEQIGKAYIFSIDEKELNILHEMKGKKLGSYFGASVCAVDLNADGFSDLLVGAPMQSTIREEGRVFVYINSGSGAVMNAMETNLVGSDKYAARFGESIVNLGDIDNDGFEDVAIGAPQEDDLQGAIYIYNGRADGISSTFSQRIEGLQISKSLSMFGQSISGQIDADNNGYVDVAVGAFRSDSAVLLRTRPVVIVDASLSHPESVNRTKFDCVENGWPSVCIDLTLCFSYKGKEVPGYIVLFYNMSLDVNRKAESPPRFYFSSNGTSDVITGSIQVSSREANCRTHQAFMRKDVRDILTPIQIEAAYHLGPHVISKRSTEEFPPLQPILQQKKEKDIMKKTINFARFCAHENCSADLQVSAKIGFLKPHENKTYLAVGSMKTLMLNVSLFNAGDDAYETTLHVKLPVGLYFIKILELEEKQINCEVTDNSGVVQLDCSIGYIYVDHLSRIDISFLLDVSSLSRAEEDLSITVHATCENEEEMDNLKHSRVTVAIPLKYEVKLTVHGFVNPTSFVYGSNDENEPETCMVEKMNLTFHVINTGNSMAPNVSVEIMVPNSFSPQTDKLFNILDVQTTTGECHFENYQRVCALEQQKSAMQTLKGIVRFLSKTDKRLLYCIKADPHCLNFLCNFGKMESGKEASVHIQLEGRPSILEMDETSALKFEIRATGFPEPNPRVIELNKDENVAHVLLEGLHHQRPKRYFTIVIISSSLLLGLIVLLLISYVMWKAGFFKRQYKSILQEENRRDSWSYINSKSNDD
T1 sequence (P05556 21-798): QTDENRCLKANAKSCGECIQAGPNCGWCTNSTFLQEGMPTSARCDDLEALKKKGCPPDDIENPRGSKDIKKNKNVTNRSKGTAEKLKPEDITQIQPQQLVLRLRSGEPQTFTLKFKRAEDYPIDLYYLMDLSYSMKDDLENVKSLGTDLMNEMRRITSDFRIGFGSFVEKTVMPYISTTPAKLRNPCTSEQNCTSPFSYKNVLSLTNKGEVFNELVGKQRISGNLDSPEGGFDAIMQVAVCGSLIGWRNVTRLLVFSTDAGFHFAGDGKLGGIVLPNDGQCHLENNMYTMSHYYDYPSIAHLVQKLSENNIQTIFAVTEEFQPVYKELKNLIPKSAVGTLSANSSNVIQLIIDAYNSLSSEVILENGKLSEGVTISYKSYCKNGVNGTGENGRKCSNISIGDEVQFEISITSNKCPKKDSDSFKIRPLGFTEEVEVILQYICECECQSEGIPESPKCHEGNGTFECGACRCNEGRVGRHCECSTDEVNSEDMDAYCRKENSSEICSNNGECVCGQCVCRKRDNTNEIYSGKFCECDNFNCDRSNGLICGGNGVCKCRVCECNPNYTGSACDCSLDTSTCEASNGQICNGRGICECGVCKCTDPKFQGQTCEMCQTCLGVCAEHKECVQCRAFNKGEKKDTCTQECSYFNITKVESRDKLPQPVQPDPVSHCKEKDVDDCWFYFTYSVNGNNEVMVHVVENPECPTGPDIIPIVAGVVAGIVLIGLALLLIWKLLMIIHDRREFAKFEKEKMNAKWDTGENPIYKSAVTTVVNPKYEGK

Compound	IC50 value, times less than the IC50 value for the standard 10-mer ([1]; as shown in Table 1)	Relative Potency [1]	clinical signs of EAE [2]	loss of potency in serum-containing buffer [3]	reduction of inflammation (swelling diameter at challenge site), initial study [4]	Percent Inhibition of post-challenge swelling, expanded study ([4]; versus vehicle alone, implanted pump, 24 hours) [%]	binding inhibition, in words (compared with standard 10-mer of SEQ ID NO:3 or other compounds) [1]
CC(C)C[C@H](NC(=O)Cc1ccccc1)C(=O)N[C@@H](CC(=O)O)C(=O)N[C@@H](Cc1ccccc1)C(=O)N1CCC[C@@H]1C(N)=O [896.52, N-phenylacetyl-Leu-Asp-Phe-D-Pro-NH2] (PhAc-LDF[dP]-NH2)	about 312 times	313	marked improvement in clinical signs	no loss of potency	reduced this type of CS-1/VLA-4-mediated immunoinflammation	36	
CC(C)C[C@H](NC(=O)[C@H](CC(=O)O)NC(=O)Cc1ccccc1)C(=O)N[C@@H](Cc1ccccc1)C(=O)N1CCC[C@@H]1C(N)=O [N-phenylacetyl-Asp-Leu-Phe-D-Pro-NH2, reference compound] (PhAc-DLF[dP]-NH2)		0			no reduction of inflammation		no inhibition of VLA-4
